Assay results reported in patent US20250222038A1, “COLLAGEN MATRIX OR MEMBRANE WITH ANTIMICROBIAL PROPERTIES” (BIOCELLIX SPA, priority 2017, published 2025).

Assays:
[1] = tested on: Gram-positive bacteria (genus Staphylococcus); experiment: Antibiotic sensitivity trial (inhibition halos on agar Müller-Hinton plate), Gram-positive isolate; format: cell-based; design: key to Plate 2 Sensitivity Level: Sensitive(S); Intermediate or Moderately sensitive (I); Resistant (R); details: Plate 2 = FIG. 2 right (Gram-positive bacteria); for Plate 2 (Gram+) (mm) inhibition halo: 18-24 hours at 37° C., average for three experiments; for Plate 2 Sensitivity Level: classified according to halo size
Description: (§1) In order to assert the antimicrobial capability of the collagen matrix or membrane, lab testing was carried out. Patient biopsies were collected from different types of infected wounds (neuropathic diabetic foot and biofilms). These samples were homogenized and set to culture for 24 hours to observe if there was bacterial growth or not. When bacterial growth is observed, colonies of these cultures were isolated, and with them, a test for microbial sensitivity to the action of nanometals was carried out. […] In order for this trial to be performed, antibiotics commonly used for eliminating these bacteria and at set concentrations were used as controls. […] In order to analyze the effectiveness of copper nanometals and its effectiveness as antimicrobial agents, three concentrations, 1, 5 and 10 mg/ml, were used. […] The trial was carried out as follows: On the surface of an agar Müller-Hinton plate, 100 μl of a bacterial solution (OD600: 0.4) were inoculated and seeded evenly for bacterial colonies to grow. Then, filter paper discs soaked with known concentrations of the different antibiotics are placed. The antibiotic will spread from the agar filter paper radially. The plate was incubated for 18-24 hours at 37° C., and then the growth inhibition halos are measured by interpreting them according to the available data in databases. The results are expressed as: Sensitive(S), Intermediate or Moderately sensitive (I) and Resistant (R). […] To determine the inhibition halo, the diameter surrounding the sense disc on which bacterial growth was not observed was measured on the plate seeded with bacteria in the presence of different antibiotics. In this case, the inhibition halo is expressed in mm. According to the halo size, the bacteria are classified as sensitive to the antibiotic action, resistant to the antibiotic action or of intermediate resistance to the antibiotic action (data that is published in databases). […] Additionally, the purpose of this trial is to rule out that the matrix alone presents some level of antimicrobial action, therefore, a copper-free matrix was used as control. […] Gram-negative bacteria belong to genus Proteus, and Gram-positive bacteria belong to genus Staphylococcus.

[2] = tested on: Gram-negative bacteria (genus Proteus); experiment: Antibiotic sensitivity trial (inhibition halos on agar Müller-Hinton plate), Gram-negative isolate; format: cell-based; design: key to Plate 1 Sensitivity Level: Sensitive(S); Intermediate or Moderately sensitive (I); Resistant (R); details: Plate 1 = FIG. 2 left (Gram-negative bacteria); for Plate 1 (Gram-) (mm) inhibition halo: 18-24 hours at 37° C., average for three experiments; for Plate 1 Sensitivity Level: classified according to halo size
Description: as §1

CC1(C)S[C@@H]2[C@H](NC(=O)[C@H](N)c3ccccc3)C(=O)N2[C@H]1C(=O)O [AM, Ampicillin]
Plate 2 (Gram+) (mm) inhibition halo [1]: 12 mm
Plate 2 Sensitivity Level [1]: Intermediate
Plate 1 (Gram-) (mm) inhibition halo [2]: 0 mm
Plate 1 Sensitivity Level [2]: Resistant

O=C(O)c1cn(C2CC2)c2cc(N3CCNCC3)c(F)cc2c1=O [CIP, Ciprofloxacin]
Plate 2 (Gram+) (mm) inhibition halo [1]: 19 mm
Plate 1 (Gram-) (mm) inhibition halo [2]: 28 mm

CC[C@H]1OC(=O)[C@H](C)[C@@H](O[C@H]2C[C@@](C)(OC)[C@@H](O)[C@H](C)O2)[C@H](C)[C@@H](O[C@@H]2O[C@H](C)C[C@H](N(C)C)[C@H]2O)[C@](C)(OC)C[C@@H](C)C(=O)[C@H](C)[C@@H](O)[C@]1(C)O [CLR, Clarithromycin]
Plate 2 (Gram+) (mm) inhibition halo [1]: 18 mm
Plate 2 Sensitivity Level [1]: Sensitive
Plate 1 (Gram-) (mm) inhibition halo [2]: 15 mm
Plate 1 Sensitivity Level [2]: Intermediate
